In patent publication US9676796B2, “Tricyclic benzoxaborole compound, preparation method and use thereof” (DONG-A ST CO., LTD., priority 2013, dated 2017):

Legend:
[1] = test system: Carbapenem-resistant Acinetobacter baumannii BAA-1605; test: Antibacterial activity in animal infection model (mouse systemic infection); format: in vivo; conditions: for ED50: Acinetobacter baumannii, BAA1605, read-out: ED50 (dose needed for the 50 percentage survival rate); for ED50 times as low as ED50 value of Compound C: mouse systemic infection, A. baumannii BAA-1605, oral
Method: Antibacterial activity of the compounds from the present invention was examined in vivo according to the method described in S. Choi et al (Antimicrob. Agents Chemother 56 (9) 4713-4717. 2012).
Carbapenem-resistant Acinetobacter baumannii BAA-1605 was used as test strain and the test strain was intraperitoneally injected into mouse to cause the systemic infection. After 1 hour of infection, the compounds of EXAMPLEs 1, 2, 3, 5 and the control compounds were administrated orally to the mice.

[2] = test system: carbapenem-resistant Acinetobacter baumannii (A. baumannii); test: Antibacterial activity in vitro, agar plate dilution MIC; format: cell-based; conditions: carbapenem-resistant clinical isolate, Mueller-Hinton agar dilution
Method: (§1) The antibacterial activity of the novel derivatives prepared by EXAMPLE 1 to 5 was evaluated in vitro by agar plate dilution method using Mueller-Hinton agar according to the NCCLS (National Committee for Clinical Laboratory Standards. 2000. Methods for dilution antimicrobial susceptibility tests for bacteria that grow aerobically. Approved standard, NCCLS document M7-A5, 5th ed, vol 20, no. 2. National Committee for Clinical Laboratory Standards, Wayne, Pa.). The test strains were clinical isolates from patients in general hospital in Korea from 2010 to 2013. The antibacterial activity was examined against important gram-negative bacteria including carbapenem-resistant Acinetobacter baumannii (A. baumannii), carbapenem-resistant Pseudomonas aeruginosa (P. aeruginosa), Escherichia coli (E. coli), and Klebsiella pneumonia (K. pneumonia) and was expressed as minimum inhibitory concentrations (MIC, μg/ml) in table 1.
(§2) The antibacterial activity of compounds (in Preparation Examples 1 to 4) and meropenem (MEPM, carbapenem-based antibiotics) were examined according to the same method shown as EXPERIMENTAL EXAMPLE 1.

P. vulgaris = test: as above; format: cell-based; conditions: Proteus vulgaris; clinical isolate, Mueller-Hinton agar dilution
Method: as §1, §2

E. cloacae = test: as above; format: cell-based; conditions: Enterobacter cloacae; clinical isolate, Mueller-Hinton agar dilution
Method: as §1, §2

K. oxytoca = test: as above; format: cell-based; conditions: Klebsiella oxytoca; clinical isolate, Mueller-Hinton agar dilution
Method: as §1, §2

[3] = test system: carbapenem-resistant Pseudomonas aeruginosa (P. aeruginosa); test: as above; format: cell-based; conditions: carbapenem-resistant clinical isolate, Mueller-Hinton agar dilution
Method: as §1, §2

C. freundii = test: as above; format: cell-based; conditions: Citrobacter freundii; clinical isolate, Mueller-Hinton agar dilution
Method: as §1, §2

[4] = test system: Klebsiella pneumoniae (K. pneumoniae); test: as above; format: cell-based; conditions: clinical isolate, Mueller-Hinton agar dilution
Method: as §1, §2

M. morganii = test: as above; format: cell-based; conditions: Morganella morganii; clinical isolate, Mueller-Hinton agar dilution
Method: as §1, §2

[5] = test system: Escherichia coli (E. coli); test: as above; format: cell-based; conditions: clinical isolate, Mueller-Hinton agar dilution
Method: as §1, §2

P. mirabilis = test: as above; format: cell-based; conditions: Proteus mirabilis; clinical isolate, Mueller-Hinton agar dilution
Method: as §1, §2

E. aerogenes = test: as above; format: cell-based, Enterobacter aerogenes; conditions: Klebsiella aerogenes; clinical isolate, Mueller-Hinton agar dilution
Method: as §1, §2

S. marcescens = test: as above; format: cell-based; conditions: Serratia marcescens; clinical isolate, Mueller-Hinton agar dilution
Method: as §1

N. gonorrhoeae = test: as above; format: cell-based; conditions: Neisseria gonorrhoeae; clinical isolate, Mueller-Hinton agar dilution

Structure (SMILES)	ED50 [1] [mg/kg]	MIC [2] [µg/mL]	MIC (P. vulgaris) [µg/mL]	MIC (E. cloacae) [µg/mL]	MIC (K. oxytoca) [µg/mL]	MIC [3] [µg/mL]	MIC (C. freundii) [µg/mL]	MIC [4] [µg/mL]	MIC (M. morganii) [µg/mL]	MIC [5] [µg/mL]	MIC (P. mirabilis) [µg/mL]	MIC (E. aerogenes) [µg/mL]	ED50 times as low as ED50 value of Compound C [1] [times]	MIC (S. marcescens) [µg/mL]	MIC (N. gonorrhoeae) [µg/mL]
Cl.NCC1OB2OCCOc3cccc1c32 (stereo not drawn) [Compound A, (7,8-dihydro-2H-1,6,9-trioxa-9a-borabenzo[cd]azulen-2-yl)methanamine, reference compound]	> 20	> 128	32	2	2	8	1	4	2	2	8	2	–	–	–
CC1COc2cccc3c2B(O1)OC3CN.Cl (stereo not drawn) [Compound B, (8-methyl-7,8-dihydro-2H-1,6,9-trioxa-9a-borabenzo[cd]azulen-2-yl)methanamine hydrochloride, reference compound]	> 20	8	16	2	2	64	1	4	4	2	8	2	–	–	–
Cl.NC[C@H]1OB2O[C@H](CO)COc3cccc1c32 [Compound C, ((2S,8R)-2-(aminomethyl)-7,8-dihydro-2H-1,6,9-trioxa-9a-borabenzo[cd]azulen-8-yl)methanol hydrochloride, reference compound]	9.07	4	8	2	2	8	2	2	2	2	8	4	–	–	–
CC1COB2OC(CN)c3cccc(c32)O1.Cl (stereo not drawn) [EXAMPLE 1, (7-methyl-7,8-dihydro-2H-1,6,9-trioxa-9a-borabenzo[cd]azulen-2-yl)methanamine hydrochloride]	1.75	4	4	2	2	32	1	2	2	2	2	4	5.18	4	2
CC1COB2O[C@H](CN)c3cccc(c32)O1.Cl (stereo partly drawn) [EXAMPLE 2, ((2S)-7-methyl-7,8-dihydro-2H-1,6,9-trioxa-9a-borabenzo[cd]azulen-2-yl)methanamine hydrochloride]	1.36	2	2	1	2	8	1	2	1	1	2	2	6.69	4	1
